Experimental data as given in patent US20240116985A1, “STAPLED PEPTIDES AND METHODS THEREOF” (priority 2020, published 2024).
Read-outs that look alike come from different tables or passages of the source.

Legend:
[1] = target: T1, full-length beta-Catenin (Uniprot ID P35222) (Homo sapiens, UniProt P35222); assay: Fluorescence polarization IC50 (beta-catenin / 5FAM-TCF4 10-53 competition); type: binding; conditions: fluorescence polarization; read-out: beta-Catenin FP IC50
T1 construct: 10 nM full-length beta-Catenin (Uniprot ID P35222)
T1 sequence (P35222 1-781): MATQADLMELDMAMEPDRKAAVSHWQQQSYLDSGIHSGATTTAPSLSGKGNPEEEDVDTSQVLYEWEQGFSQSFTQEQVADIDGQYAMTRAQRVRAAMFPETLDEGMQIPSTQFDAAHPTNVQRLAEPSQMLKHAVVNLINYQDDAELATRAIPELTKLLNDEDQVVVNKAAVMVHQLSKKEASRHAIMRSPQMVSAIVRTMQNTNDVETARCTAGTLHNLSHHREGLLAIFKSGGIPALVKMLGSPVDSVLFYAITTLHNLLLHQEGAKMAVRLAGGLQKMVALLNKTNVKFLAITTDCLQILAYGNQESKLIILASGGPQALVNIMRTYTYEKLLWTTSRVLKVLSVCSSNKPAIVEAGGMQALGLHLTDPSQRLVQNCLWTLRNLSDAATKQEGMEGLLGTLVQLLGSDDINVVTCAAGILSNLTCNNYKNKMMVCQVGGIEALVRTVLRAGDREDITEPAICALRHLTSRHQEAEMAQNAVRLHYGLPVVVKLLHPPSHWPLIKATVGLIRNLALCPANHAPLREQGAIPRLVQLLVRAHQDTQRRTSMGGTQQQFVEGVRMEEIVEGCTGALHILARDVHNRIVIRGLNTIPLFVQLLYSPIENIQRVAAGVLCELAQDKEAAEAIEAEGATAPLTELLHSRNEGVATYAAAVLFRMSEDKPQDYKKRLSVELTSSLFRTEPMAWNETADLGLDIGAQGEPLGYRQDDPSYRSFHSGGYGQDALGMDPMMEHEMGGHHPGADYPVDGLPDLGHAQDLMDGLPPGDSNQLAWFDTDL

[2] = target: T2, beta-catenin/TCF4 engagement (Homo sapiens, UniProt P35222); assay: Nano-BRET target engagement assay (B-cat-Halo & TCF4-Luc in HEK293 cells); type: cell-based; conditions: read-out: NanoBRET Abs IC50
T2 construct: expressed in transfected cells; host or cells: HEK293
T2 sequence (P35222 1-781): T1 sequence (P35222 1-781)

Work on CC(=O)N1CCC[C@]12CC=CCCCC1(CCCC=CCCCOC(=O)N3CC[C@@](C(=O)N[C@@H](Cc4ccsc4)C(=O)N[C@@H](Cc4ccc(Cl)cc4)C(=O)N[C@@H](CCC(N)=O)C(N)=O)(C3)NC(=O)[C@H](CC(C)C)NC(=O)[C@H](Cc3ccccc3)NC(=O)[C@H](C)NC(=O)[C@H](C)NC(=O)[C@H](Cc3cccc(C(=O)O)c3)NC(=O)[C@H](CC(=O)O)NC1=O)NC(=O)[C@H](CC(C)(C)C)NC(=O)[C@H](CC(=O)O)NC2=O (stereo partly drawn) [I-2220, Ac-PL3-Asp-Npg-B5-Asp-3COOHF-Ala-Ala-Phe-Leu-PyrS2-3Thi-4C1F-Gln-NH2] yielded an IC50 [1] of 0.012 µM and an IC50 ([2]; absolute IC50) of 16.3 µM.
In the case of CC(=O)N1CCC[C@]12CC=CCCCC1(CCCC=CCCCOC(=O)N3CC[C@@](C(=O)N[C@@H](Cc4ccccc4)C(=O)N[C@@H](Cc4csc5ccccc45)C(=O)N[C@@H](C)C(N)=O)(C3)NC(=O)[C@H](CC(N)=O)NC(=O)[C@H](Cc3ccccc3)NC(=O)[C@H](C)NC(=O)[C@H](Cc3c[nH]cn3)NC(=O)[C@H](CCC(N)=O)NC(=O)[C@H](CC(=O)O)NC1=O)NC(=O)[C@H](CC1CCCCC1)NC(=O)[C@H](CC(N)=O)NC2=O (stereo partly drawn) [I-2069, Ac-PL3-Asn-Cha-B5-Asp-Gln-His-Ala-Phe-Asn-PyrS2-Phe-BztA-Ala-NH2], the IC50 [1] is reported as 0.256 µM and the IC50 [2] is reported as > 20 µM.
CC(=O)N1CCC[C@]12CC=CCCCC1(CCCC=CCCCOC(=O)N3CC[C@@](C(=O)N[C@@H](Cc4ccsc4)C(=O)N[C@@H](Cc4csc5ccccc45)C(=O)N[C@@H](CCC(N)=O)C(N)=O)(C3)NC(=O)[C@H](CC(C)C)NC(=O)[C@H](Cc3ccccc3)NC(=O)[C@H](C)NC(=O)[C@H](C)NC(=O)[C@H](Cn3cc(CC(C)(C)C(=O)O)nn3)NC(=O)[C@H](CC(=O)O)NC1=O)NC(=O)[C@H](CC(C)(C)C)NC(=O)[C@H](CC(=O)O)NC2=O (stereo partly drawn) [I-2083, Ac-PL3-Asp-Npg-B5-Asp-[CH2CMe2CO2H]TriAzDap-Ala-Ala-Phe-Leu-PyrS2-3Thi-BztA-Gln-NH2] was tested, and the IC50 [1] was 0.005 µM and the IC50 [2] was 3.7 µM.
Work on CC(=O)N1CCC[C@]12CC=CCCCC1(CCCC=CCCCOC(=O)N3CC[C@@](C(=O)N[C@@H](Cc4ccccc4Cl)C(=O)N[C@@H](Cc4csc5ccccc45)C(=O)N[C@@H](CC(N)=O)C(N)=O)(C3)NC(=O)[C@H](C)NC(=O)[C@H](Cc3ccccc3)NC(=O)[C@H](C)NC(=O)[C@H](C)NC(=O)[C@H](Cc3cccc(C(=O)O)c3)NC(=O)[C@H](CC(=O)O)NC1=O)NC(=O)[C@H](CC(C)(C)C)NC(=O)[C@H](CC(=O)O)NC2=O (stereo partly drawn) [I-2036, Ac-PL3-Asp-Npg-B5-Asp-3COOHF-Ala-Ala-Phe-Ala-PyrS2-2C1F-BztA-Asn-NH2] yielded an IC50 [1] of 0.019 µM and an IC50 [2] of 12.9 µM.
With CC(=O)N1CCC[C@]12CC=CCCCC1(CCCC=CCCCCCC[C@@](C)(C(=O)N[C@@H](Cc3ccccc3)C(=O)N[C@@H](Cc3csc4ccccc34)C(=O)N[C@@H](CCC(N)=O)C(N)=O)NC(=O)[C@H](CC(C)C)NC(=O)[C@H](Cc3ccccc3)NC(=O)[C@H](C)NC(=O)[C@H](C)NC(=O)[C@H](CCC(=O)O)NC(=O)[C@H](CC(=O)O)NC1=O)NC(=O)[C@H](CCCCN)NC(=O)[C@H](CC(=O)O)NC2=O (stereo partly drawn) [I-1553, Ac-PL3-Asp-Lys-B5-Asp-Glu-Ala-Ala-Phe-Leu-S8-Phe-BztA-Gln-NH2] the IC50 [1] was 0.133 µM and the IC50 ([2]; absolute IC50) was > 20 µM.
In the case of CC(=O)N1CCC[C@]12CC=CCCCC1(CCCC=CCCCOC(=O)N3CC[C@@](C(=O)N[C@@H](Cc4ccsc4)C(=O)N[C@@H](Cc4csc5ccccc45)C(=O)N[C@@H](CCC(N)=O)C(N)=O)(C3)NC(=O)[C@H](CC(N)=O)NC(=O)[C@H](Cc3ccccc3)NC(=O)[C@H](C)NC(=O)C3(CCCC3)NC(=O)[C@H]([C@@H](C)O)NC(=O)[C@H](CC(N)=O)NC1=O)NC(=O)[C@H](CC(C)(C)C)NC(=O)[C@H](CC(=O)O)NC2=O (stereo partly drawn) [I-2493, Ac-PL3-Asp-Npg-B5-Asn-Thr-CyLeu-Ala-Phe-Asn-PyrS2-3Thi-BztA-Gln-NH2], the IC50 [1] is reported as 0.267 µM and the IC50 ([2]; absolute IC50) is reported as > 20 µM.
CC(=O)N1CCC[C@]12CC=CCCCC1(CCCC=CCCCOC(=O)N3CC[C@@](C(=O)N[C@@H](Cc4ccsc4)C(=O)N[C@@H](Cc4csc5ccccc45)C(=O)N[C@@H](CCC(N)=O)C(N)=O)(C3)NC(=O)[C@H](CC(C)C)NC(=O)[C@H](Cc3ccccc3)NC(=O)[C@H](C)NC(=O)[C@H](C)NC(=O)[C@H](CN(CC(=O)O)C(=O)c3c(F)c(F)c(F)c(F)c3F)NC(=O)[C@H](CC(=O)O)NC1=O)NC(=O)[C@H](CC(C)(C)C)NC(=O)[C@H](CC(=O)O)NC2=O (stereo partly drawn) [I-2242, Ac-PL3-Asp-Npg-B5-Asp-[PfBz]GA-Ala-Ala-Phe-Leu-PyrS2-3Thi-BztA-Gln-NH2] gave an IC50 [1] of 0.013 µM and an IC50 ([2]; absolute IC50) of 21.4 µM.
Work on CC(=O)N1CCC[C@]12CC=CCCCC1(CCCC=CCCCOC(=O)N3CC[C@@](C(=O)N[C@@H](Cc4ccsc4)C(=O)N[C@@H](Cc4csc5ccccc45)C(=O)N[C@@H](CCC(=O)N4CC[C@@H](N(C)C)C4)C(N)=O)(C3)NC(=O)[C@H](CC(C)C)NC(=O)[C@H](Cc3ccccc3)NC(=O)[C@H](C)NC(=O)[C@H](C)NC(=O)[C@H](CN(CC(=O)O)CC(F)(F)F)NC(=O)[C@H](CC(=O)O)NC1=O)NC(=O)[C@H](CC(C)(C)C)NC(=O)[C@H](CC(=O)O)NC2=O (stereo partly drawn) [I-1804, Ac-PL3-Asp-Npg-B5-Asp-TfeGA-Ala-Ala-Phe-Leu-PyrS2-3Thi-BztA-[RDMAPyr]GlnR-NH2] yielded an IC50 [1] of 0.008 µM and an IC50 ([2]; absolute IC50) of 9.4 µM.
In the case of CC(=O)N1CCC[C@]12CC=CCCCC1(CCCC=CCCCOC(=O)N3CC[C@@](C(=O)N[C@@H](Cc4ccsc4)C(=O)N[C@@H](Cc4csc5ccccc45)C(=O)N[C@@H](CCC(N)=O)C(N)=O)(C3)NC(=O)[C@H](CC(N)=O)NC(=O)[C@H](Cc3ccccc3)NC(=O)[C@H](C)NC(=O)[C@H](C)NC(=O)[C@H](CNCC(=O)O)NC(=O)[C@H](CC(=O)O)NC1=O)NC(=O)[C@H](CC(C)(C)C)NC(=O)[C@H](CC(=O)O)NC2=O (stereo partly drawn) [I-1732, Ac-PL3-Asp-Npg-B5-Asp-GA-Ala-Ala-Phe-Asn-PyrS2-3Thi-BztA-Gln-NH2], the IC50 [1] is reported as 0.011 µM and the IC50 ([2]; absolute IC50) is reported as > 20 µM.
CC(=O)N1CCC[C@]12CC=CCCCC1(CCCC=CCCCOC(=O)N3CC[C@@](C(=O)N[C@@H](Cc4ccsc4)C(=O)N[C@@H](Cc4csc5ccccc45)C(=O)N[C@@H](CCC(N)=O)C(N)=O)(C3)NC(=O)[C@H](CCO)NC(=O)[C@H](Cc3cccc(C(=O)O)c3)NC(=O)[C@H](C)NC(=O)[C@H](C)NC(=O)[C@H](CCc3ccc(O)cc3)NC(=O)[C@H](CC(=O)O)NC1=O)NC(=O)[C@H](CC(C)(C)C)NC(=O)[C@H](CC(=O)O)NC2=O (stereo partly drawn) [I-2116, Ac-PL3-Asp-Npg-B5-Asp-hTyr-Ala-Ala-3COOHF-Hse-PyrS2-3Thi-BztA-Gln-NH2] showed an IC50 [1] of 0.019 µM and an IC50 [2] of 33.4 µM.
CC(=O)N1CCC[C@]12CC=CCCCC1(CCCC=CCCCOC(=O)N3CC[C@@](C(=O)N[C@@H](Cc4ccccc4C(F)(F)F)C(=O)N[C@@H](Cc4csc5ccccc45)C(=O)N[C@@H](CCCN4CCOCC4)C(N)=O)(C3)NC(=O)[C@H](CC(C)C)NC(=O)[C@H](Cc3ccccc3)NC(=O)[C@H](C)NC(=O)[C@H](C)NC(=O)[C@H](Cc3cccc(C(=O)O)c3)NC(=O)[C@H](CC(=O)O)NC1=O)NC(=O)[C@H](CC(C)(C)C)NC(=O)[C@H](CC(=O)O)NC2=O (stereo partly drawn) [I-1610, Ac-PL3-Asp-Npg-B5-Asp-3COOHF-Ala-Ala-Phe-Leu-PyrS2-2F3MeF-BztA-MorphNva-NH2] was tested, and the IC50 [1] was 0.019 µM and the IC50 ([2]; absolute IC50) was 4.1 µM.
CC(=O)N1CCC[C@]12CC=CCCCC1(CCCC=CCCCOC(=O)N3CC[C@@](C(=O)N[C@@H](Cc4ccsc4)C(=O)N[C@@H](Cc4csc5ccccc45)C(=O)N[C@@H](CC(N)=O)C(=O)N[C@@H](CC(C)C)C(=O)N[C@@H](CC(C)C)C(=O)N[C@@H](CC(C)C)C(N)=O)(C3)NC(=O)[C@H](CC(C)C)NC(=O)[C@H](Cc3ccccc3)NC(=O)[C@H](C)NC(=O)[C@H](C)NC(=O)[C@H](Cc3cccc(C(=O)O)c3)NC(=O)[C@H](CC(=O)O)NC1=O)NC(=O)[C@H](CC(C)(C)C)NC(=O)[C@H](CC(=O)O)NC2=O (stereo partly drawn) [I-2275, Ac-PL3-Asp-Npg-B5-Asp-3COOHF-Ala-Ala-Phe-Leu-PyrS2-3Thi-BztA-Asn-Leu-Leu-Leu-NH2] was tested, and the IC50 [1] was 0.117 µM and the IC50 ([2]; absolute IC50) was 3.5 µM.
In the case of CC(=O)N1CCC[C@]12CCCCCCC1(CCCCCCCCOC(=O)N3CC[C@@](C(=O)N[C@@H](Cc4ccccc4)C(=O)N[C@@H](Cc4csc5ccccc45)C(=O)N[C@@H](CCC(N)=O)C(N)=O)(C3)NC(=O)[C@H](CC(C)C)NC(=O)[C@H](Cc3ccccc3)NC(=O)[C@H](C)NC(=O)[C@H](C)NC(=O)[C@H](CN(CC(=O)O)CC(F)(F)F)NC(=O)[C@H](CC(=O)O)NC1=O)NC(=O)[C@H](CC(C)(C)C)NC(=O)[C@H](CC(=O)O)NC2=O (stereo partly drawn) [I-1711, Ac-PL3-Asp-Npg-B5-Asp-TfeGA-Ala-Ala-Phe-Leu-PyrS2-Phe-BztA-Gln-NH2], the IC50 [1] is reported as 0.232 µM and the IC50 ([2]; absolute IC50) is reported as 33.3 µM.
